Laboratory results: paper PMC6269819, “Evaluation of the Biological Activity of Naturally Occurring 5,8-Dihydroxycoumarin” (Molecules, 2013)
Marks after values point to notes of the source that are not given here.

Key:
[1] = Rapeseed oil oxidation in Oxipress apparatus; settings: for protection factor of rapeseed oil: 120 °C, oxygen 5 bars
Procedure: The samples were prepared by mixing rapeseed oil with 0.025, 0.05 and 0.1% of DHC. Five g of oil were placed in a reactor tube and thermostated at 120 °C under oxygen atmosphere (5 bars) in Oxipress apparatus (Mikrolab, Aarhus). Pressure changes which occur due to the absorption of oxygen consumed for oil oxidation were recorded. The protection factor (PF) values of rapeseed oil in case of using 5,8-DHC were calculated by the following formula: PF = IPX/IPK(3) where IPX is induction period of sample with additive (h); IPK is induction period of sample without additive (h).

[2] = test system: human lymphocytes; assay: Sister chromatid exchanges and replication index in human lymphocyte cultures in vitro; format: cell-based
Procedure: Blood samples were taken from two healthy female volunteers (donor A) and (donor B). Whole peripheral blood was grown in HEPES-buffered RPMI 1640 medium supplemented with 12% heat-inactivated newborn calf serum, 7.8 μg/mL phytohemagglutinin P, 50 μg/mL gentamycin, 10 μg/mL 5-bromo-2'-deoxyuridine. All reagents used for the cell culture were purchased from Sigma-Aldrich Chemical Co. (St. Louis, MO, USA). Cell cultures were incubated at 37 °C for 72 h. Treatment with test compounds was carried out 48 h after culture initiation and lasted for the period of 24 h. Dose range of 5,8-DHC (10 to 40 µg/mL) was based on pilot experiments (data not shown). As whole blood cultures display many properties common with the liver microsomal cytochrome P450 system, no external metabolising enzymes were added. 5,8-DHC was dissolved in ethanol and then diluted with RPMI 1640 medium to the desired concentration. Ethanol in a final concentration of 7.5µL/mL was used as a solvent control. […] Working solutions were made just before treatment. Two parallel cultures were used for each concentration of the compound tested. Two cultures were left untreated and served as a blank control. Methyl methanesulfonate (MMS) in a final concentration of 0.02 μL/mL was used as a positive control. The cultures were exposed to colchicine at a final concentration of 0.6 μg/mL for the last 3 h of incubation. The cells were harvested, hypotonically swollen in 0.075 M KCl and fixed in methanol: acetic acid (3:1). Air-dried slides were differentially stained by fluorescence plus Giemsa technique as has been described previously. Briefly, the slides were stained for 10 min. with 10 μg/mL of Hoechst 33258 dye (dissolved in 0.07 M Soerensen’s buffer, pH 6.8). Then the slides were rinsed, mounted with citrate buffer (pH 8.5), covered with cover slips and exposed to UV light (400 W mercury lamp at a distance of 15 cm) for 6–7 min. Slides were then rinsed and stained for 3–4 min. with 5% Giemsa. Cytogenetic analysis was performed on coded slides. No less than 100 first-mitotic division metaphases per culture were analysed for CAs, and no less than 50 second-division metaphases for SCEs.
Cell replicative kinetics were determined by means of a replicative index (RI = [M1 + 2M2 + 3M3]/N, where M1, M2, M3 are the numbers of cells that had undergone one, two or three cycles of replication, and N is a total number of cells scored). 300 cells were scored to determine RI

## O=c1ccc2c(O)ccc(O)c2o1 [5,8-DHC, 5,8-Dihydroxycoumarin]
[1]; 0.025 % 5,8-DHC
  rapeseed oil autooxidation induction period (IP): 3.81 h
[1]; 0.025% 5,8-DHC
  protection factor of rapeseed oil: 1.69
[1]; 0.050 % 5,8-DHC
  rapeseed oil autooxidation induction period (IP): 5.46 h
[1]; 0.05% 5,8-DHC
  protection factor of rapeseed oil: 2.43
[1]; 0.100 % 5,8-DHC
  rapeseed oil autooxidation induction period (IP): 8.46 h
[2]
  ratio of regression coefficients donor A / donor B: 2.6 times
[2]; Donor A, 10 µg/mL
  RI ± S.E.M: 2.70 ± 0.04
  SCE/ cell ± S.E.M.: 10.2 ± 0.5 SCE/cell
[2]; Donor A, 15 µg/mL
  RI ± S.E.M: 2.74 ± 0.31
  SCE/ cell ± S.E.M.: 12.3 ± 0.6 ^b SCE/cell
[2]; Donor A, 20 µg/mL
  RI ± S.E.M: 2.65 ± 0.04 ^b
  SCE/ cell ± S.E.M.: 12.7 ± 0.7 ^b SCE/cell
[2]; Donor A, 25 µg/mL
  RI ± S.E.M: 2.66 ± 0.04 ^b
  SCE/ cell ± S.E.M.: 13.6 ± 0.6 ^b SCE/cell
[2]; Donor A, 30 µg/mL
  RI ± S.E.M: 2.55 ± 0.05 ^b
  SCE/ cell ± S.E.M.: 13.9 ± 0.6 ^b SCE/cell
[2]; Donor A, 35 µg/mL
  RI ± S.E.M: 2.51 ± 0.05 ^b
  SCE/ cell ± S.E.M.: 15.0 ± 0.8 ^b SCE/cell
[2]; Donor A, 40 µg/mL
  RI ± S.E.M: 2.62 ± 0.04 ^b
  SCE/ cell ± S.E.M.: 19.7 ± 1.5 ^b SCE/cell
[2]; Donor B, 10 µg/mL
  RI ± S.E.M: 2.22 ± 0.05 ^b
  SCE/ cell ± S.E.M.: 10.1 ± 0.5 SCE/cell
[2]; Donor B, 15 µg/mL
  RI ± S.E.M: 2.35 ± 0.05
  SCE/ cell ± S.E.M.: 10.6 ± 0.5 SCE/cell
[2]; Donor B, 20 µg/mL
  RI ± S.E.M: 2.49 ± 0.05
  SCE/ cell ± S.E.M.: 10.3 ± 0.4 SCE/cell
[2]; Donor B, 25 µg/mL
  RI ± S.E.M: 2.31 ± 0.05 ^b
  SCE/ cell ± S.E.M.: 9.9 ± 0.5 SCE/cell
[2]; Donor B, 30 µg/mL
  RI ± S.E.M: 2.31 ± 0.06 ^b
  SCE/ cell ± S.E.M.: 11.8 ± 0.5 ^b SCE/cell
[2]; Donor B, 35 µg/mL
  RI ± S.E.M: 2.17 ± 0.06 ^b
  SCE/ cell ± S.E.M.: 11.5 ± 0.6 ^b SCE/cell
[2]; Donor B, 40 µg/mL
  RI ± S.E.M: 2.07 ± 0.06 ^b
  SCE/ cell ± S.E.M.: 13.3 ± 0.6 ^b SCE/cell
[2]; donor A
  dose giving statistically significant increase in the frequency of SCEs: 15 µg/mL
  regression coefficient of SCE dose-response relationship: 1.15
[2]; donor B
  dose giving statistically significant increase in the frequency of SCEs: ≥ 30 µg/mL
  regression coefficient of SCE dose-response relationship: 0.44
[2]; lymphocytes of both donors
  concentration consistently inhibiting cell replicative kinetics: higher than 25 μg/mL
